# From the supplement of paper PMC10307832
# Columns and labels:
# Assay in all cases: relative viability (nuclei count vs DMSO), 5 days (fraction); higher = more cells survive
# Vorinostat + Lapatinib = compound: O=C(CCCCCCC(=O)Nc1ccccc1)NO [Vorinostat] + CS(=O)(=O)CCNCc1ccc(-c2ccc3ncnc(Nc4ccc(OCc5cccc(F)c5)c(Cl)c4)c3c2)o1 [Lapatinib] (partner 2 µM)
# How it was run: (§1)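 One day after seeding in 1536-well plates, lung cancer cell lines were dosed by pin tool. Dosing was either single-drug or a fixed anchor-drug dose plus five library-drug doses (not always all listed) in √10 steps. After 5 days, nuclei were stained in one fix-and-stain step and counted on 4× images, and relative viability is the nuclei count of treated wells over that of vehicle wells, given as the median of duplicate plates.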
# Vorinostat + Luminespib = compound: O=C(CCCCCCC(=O)Nc1ccccc1)NO [Vorinostat] + CCNC(=O)c1noc(-c2cc(C(C)C)c(O)cc2O)c1-c1ccc(CN2CCOCC2)cc1 [Luminespib] (partner 0.01 µM)
# How it was run: as §1
# Vorinostat + Crizotinib = compound: O=C(CCCCCCC(=O)Nc1ccccc1)NO [Vorinostat] + C[C@@H](Oc1cc(-c2cnn(C3CCNCC3)c2)cnc1N)c1c(Cl)ccc(F)c1Cl [Crizotinib] (partner 1 µM)
# How it was run: as §1
# Vorinostat = compound: O=C(CCCCCCC(=O)Nc1ccccc1)NO [Vorinostat]
# How it was run: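 In 1536-well plates, lung cancer cell lines rested overnight at 37 °C before five library-drug doses (not always all listed), √10 apart, were pinned onto vehicle-anchored plates. Nuclei were counted with MetaXpress from 4× Hoechst images taken after 5 days without medium change. Viability compares treated-well with vehicle-well nuclei as a median over plates, and plates needed control CV below 25% plus at least one doubling to pass.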
Cell Line,relative viability (Vorinostat + Lapatinib; first compound 0.253 µM),relative viability (Vorinostat + Lapatinib; first compound 0.8 µM),relative viability (Vorinostat + Lapatinib; first compound 2.53 µM),relative viability (Vorinostat + Lapatinib; first compound 8 µM),relative viability (Vorinostat + Luminespib; first compound 0.253 µM),relative viability (Vorinostat + Luminespib; first compound 0.8 µM),relative viability (Vorinostat + Luminespib; first compound 2.53 µM),relative viability (Vorinostat + Luminespib; first compound 8 µM),relative viability (Vorinostat + Crizotinib; first compound 0.253 µM),relative viability (Vorinostat + Crizotinib; first compound 0.8 µM),relative viability (Vorinostat + Crizotinib; first compound 2.53 µM),relative viability (Vorinostat + Crizotinib; first compound 8 µM),relative viability (Vorinostat; 0.253 µM),relative viability (Vorinostat; 0.8 µM),"relative viability (Vorinostat; 1 µM, anchor plate)",relative viability (Vorinostat; 2.53 µM),relative viability (Vorinostat; 8 µM)
HCC-44,1.03,0.985,0.508,0.111,1.23,0.804,0.205,0.141,0.728,0.783,0.224,0.0957,0.995,0.91,1.09,0.654,0.161
NCI-H2126,0.75,0.733,0.562,0.22,0.832,0.977,0.403,0.175,0.961,1.01,0.538,0.203,1.03,0.875,0.769,0.655,0.257
NCI-H1993,0.959,1,0.579,0.399,0.874,0.831,0.656,0.4,0.836,0.932,0.531,0.653,1.08,1,0.823,0.705,0.56
NCI-H460,1.35,0.742,0.0269,0.0111,0.0445,0.0295,0.0322,0.0199,1.05,0.336,0.0241,0.0093,1.09,0.955,0.715,0.144,0.0458
NCI-H838,1.44,0.863,0.425,0.148,0.287,0.207,0.199,0.118,0.986,0.76,0.241,0.105,1.15,1.03,0.763,0.565,0.191
EKVX,0.217,0.209,0.173,0.107,0.984,0.952,0.659,0.17,0.958,0.891,0.428,0.152,1.09,1.01,0.77,0.688,0.175
NCI-H1355,1.02,0.792,0.693,0.157,0.894,0.681,0.383,0.184,1.19,0.963,0.398,0.138,1.16,0.852,0.673,0.598,0.192
NCI-H596,1.26,0.971,0.781,0.307,0.933,1.05,0.476,0.265,1.05,0.945,0.517,0.31,1.03,0.799,0.621,0.797,0.311
LK-2,1.19,0.673,0.209,0.108,0.207,0.171,0.152,0.132,0.227,0.237,0.175,0.0931,1.18,0.67,0.309,0.207,0.0969
HOP-62,1.25,0.572,0.516,0.0547,0.942,0.904,0.396,0.103,0.972,0.831,0.251,0.0671,1.2,0.882,0.679,0.528,0.113
BEN,0.819,0.379,0.151,0.0751,0.454,0.176,0.223,0.0986,1.06,0.553,0.147,0.0454,1.04,0.678,0.597,0.248,0.0942
NCI-H1755,1.05,1.03,0.28,0.154,0.442,0.661,0.572,0.166,0.942,0.883,0.233,0.154,1.08,1.01,0.735,0.566,0.292
NCI-H322M,0.733,0.608,0.522,0.352,1.25,1.11,0.731,0.28,0.888,0.758,0.447,0.194,1.17,0.87,0.915,0.6,0.385
NCI-H1651,1.07,0.532,0.108,0.0671,0.831,0.799,0.429,0.116,0.846,0.786,0.232,0.097,1.01,0.928,0.579,0.203,0.0791
NCI-H727,0.632,0.736,0.335,0.227,0.25,0.378,0.311,0.341,0.962,0.687,0.299,0.214,1.11,0.813,1.19,0.514,0.31
NCI-H23,1.24,1.03,0.344,0.141,0.197,0.25,0.191,0.164,0.525,0.381,0.102,0.116,1.14,0.985,0.653,0.541,0.136
